Results reported in the CheMixHub viscosity set.

Assay: xn = mol fraction of the nth substance listed

ClC(Cl)(Cl)Cl + c1ccccc1
Conditions	viscosity [mPa·s]
293.25 K, 101 kPa, x1 = 0.4	0.8063
293.25 K, 101 kPa, x1 = 0.5	0.8381
293.25 K, 101 kPa, x1 = 0.8	0.943
293.35 K, 101 kPa, x1 = 0.2	0.7416
298 K, 101 kPa, x1 = 0.1367	0.64
298 K, 101 kPa, x1 = 0.1809	0.653
298 K, 101 kPa, x1 = 0.2176	0.664
298 K, 101 kPa, x1 = 0.2521	0.672
298 K, 101 kPa, x1 = 0.2882	0.68
298 K, 101 kPa, x1 = 0.3188	0.688
298 K, 101 kPa, x1 = 0.3463	0.697
298 K, 101 kPa, x2 = 0.189	0.8814
298 K, 101 kPa, x2 = 0.2701	0.8626
298 K, 101 kPa, x2 = 0.344	0.845
298 K, 101 kPa, x2 = 0.4734	0.8084
298 K, 101 kPa, x2 = 0.583	0.7751
298 K, 101 kPa, x2 = 0.6318	0.7601
298 K, 101 kPa, x2 = 0.6771	0.7455
298 K, 101 kPa, x2 = 0.7194	0.7309
298 K, 101 kPa, x2 = 0.7588	0.7176
298 K, 101 kPa, x2 = 0.8303	0.6917
298 K, 101 kPa, x2 = 0.8935	0.667
298 K, 101 kPa, x2 = 0.9224	0.6567
298 K, 101 kPa, x2 = 0.9497	0.6424
298 K, 101.3 kPa, x1 = 0.1472	0.655
298 K, 101.3 kPa, x1 = 0.2844	0.69
298 K, 101.3 kPa, x1 = 0.4778	0.744
298 K, 101.3 kPa, x1 = 0.6302	0.79
298 K, 101.3 kPa, x1 = 0.8302	0.842
298.15 K, 101 kPa, x1 = 0.0951	0.6268
298.15 K, 101 kPa, x1 = 0.169	0.6474
298.15 K, 101 kPa, x1 = 0.2348	0.6652
298.15 K, 101 kPa, x1 = 0.2559	0.6726
298.15 K, 101 kPa, x1 = 0.3734	0.7073
298.15 K, 101 kPa, x1 = 0.4835	0.7352
298.15 K, 101 kPa, x1 = 0.4917	0.7429
298.15 K, 101 kPa, x1 = 0.5951	0.7742
298.15 K, 101 kPa, x1 = 0.6135	0.7803
298.15 K, 101 kPa, x1 = 0.7561	0.8236
298.15 K, 101 kPa, x1 = 0.7767	0.8291
298.15 K, 101 kPa, x1 = 0.9264	0.8783
298.15 K, 101 kPa, x2 = 0.1022	0.8965
298.15 K, 101 kPa, x2 = 0.2	0.832
298.15 K, 101 kPa, x2 = 0.2062	0.8621
298.15 K, 101 kPa, x2 = 0.2386	0.808
298.15 K, 101 kPa, x2 = 0.3055	0.8356
298.15 K, 101 kPa, x2 = 0.4	0.773
298.15 K, 101 kPa, x2 = 0.4022	0.8053
298.15 K, 101 kPa, x2 = 0.5051	0.7709
298.15 K, 101 kPa, x2 = 0.5755	0.706
298.15 K, 101 kPa, x2 = 0.6	0.714
298.15 K, 101 kPa, x2 = 0.604	0.7357
298.15 K, 101 kPa, x2 = 0.7006	0.7062
298.15 K, 101 kPa, x2 = 0.736	0.66
298.15 K, 101 kPa, x2 = 0.8	0.658
298.15 K, 101 kPa, x2 = 0.8004	0.6785
298.15 K, 101 kPa, x2 = 0.8991	0.6415
298.15 K, 101.33 kPa, x1 = 0.125	0.6346
298.15 K, 101.33 kPa, x1 = 0.2348	0.6652
298.15 K, 101.33 kPa, x1 = 0.4835	0.7352
298.15 K, 101.33 kPa, x1 = 0.5	0.7404
298.15 K, 101.33 kPa, x1 = 0.65	0.7872
298.15 K, 101.33 kPa, x1 = 0.7767	0.8291
298.15 K, 101.33 kPa, x1 = 0.9	0.8691
302.65 K, 101 kPa, x1 = 0.4	0.707
302.65 K, 101 kPa, x1 = 0.5	0.7278
303.15 K, 101 kPa, x2 = 0.1022	0.8407
303.15 K, 101 kPa, x2 = 0.2062	0.8084
303.15 K, 101 kPa, x2 = 0.3055	0.7825
303.15 K, 101 kPa, x2 = 0.4022	0.7545
303.15 K, 101 kPa, x2 = 0.5051	0.7209
303.15 K, 101 kPa, x2 = 0.604	0.688
303.15 K, 101 kPa, x2 = 0.7006	0.6616
303.15 K, 101 kPa, x2 = 0.8004	0.6348
303.15 K, 101 kPa, x2 = 0.8991	0.6047
303.25 K, 101 kPa, x1 = 0.8	0.8132
303.35 K, 101 kPa, x1 = 0.6	0.7543
303.65 K, 101 kPa, x1 = 0.2	0.6404
308 K, 101 kPa, x2 = 0.189	0.7518
308 K, 101 kPa, x2 = 0.2701	0.7355
308 K, 101 kPa, x2 = 0.344	0.7202
308 K, 101 kPa, x2 = 0.4734	0.6919
308 K, 101 kPa, x2 = 0.583	0.6652
308 K, 101 kPa, x2 = 0.6318	0.6524
308 K, 101 kPa, x2 = 0.6771	0.6391
308 K, 101 kPa, x2 = 0.7194	0.627
308 K, 101 kPa, x2 = 0.7588	0.6159
308 K, 101 kPa, x2 = 0.8303	0.5939
308 K, 101 kPa, x2 = 0.8935	0.5753
308 K, 101 kPa, x2 = 0.9224	0.5661
308 K, 101 kPa, x2 = 0.9497	0.5573
308.15 K, 101 kPa, x2 = 0.1022	0.7881
308.15 K, 101 kPa, x2 = 0.2062	0.758
308.15 K, 101 kPa, x2 = 0.3055	0.732
308.15 K, 101 kPa, x2 = 0.4022	0.7062
308.15 K, 101 kPa, x2 = 0.5051	0.6748
308.15 K, 101 kPa, x2 = 0.604	0.6434
308.15 K, 101 kPa, x2 = 0.7006	0.62
308.15 K, 101 kPa, x2 = 0.8004	0.5929
308.15 K, 101 kPa, x2 = 0.8991	0.5655
312.15 K, 101 kPa, x1 = 0.5	0.6431
312.35 K, 101 kPa, x1 = 0.4	0.6172
312.35 K, 101 kPa, x1 = 0.6	0.6695
312.35 K, 101 kPa, x1 = 0.8	0.7173
312.65 K, 101 kPa, x1 = 0.2	0.5692
313.15 K, 101 kPa, x2 = 0.1022	0.7415
313.15 K, 101 kPa, x2 = 0.2062	0.7096
313.15 K, 101 kPa, x2 = 0.3055	0.6862
313.15 K, 101 kPa, x2 = 0.4022	0.659
313.15 K, 101 kPa, x2 = 0.5051	0.6313
313.15 K, 101 kPa, x2 = 0.604	0.6024
313.15 K, 101 kPa, x2 = 0.7006	0.58
313.15 K, 101 kPa, x2 = 0.8004	0.5544
313.15 K, 101 kPa, x2 = 0.8991	0.5291
318 K, 101 kPa, x2 = 0.189	0.6483
318 K, 101 kPa, x2 = 0.2701	0.6346
318 K, 101 kPa, x2 = 0.344	0.6217
318 K, 101 kPa, x2 = 0.4734	0.599
318 K, 101 kPa, x2 = 0.583	0.5775
318 K, 101 kPa, x2 = 0.6318	0.5665
318 K, 101 kPa, x2 = 0.6771	0.5566
318 K, 101 kPa, x2 = 0.7194	0.5469
318 K, 101 kPa, x2 = 0.7588	0.5373
318 K, 101 kPa, x2 = 0.8303	0.5209
318 K, 101 kPa, x2 = 0.8935	0.5053
318 K, 101 kPa, x2 = 0.9224	0.4992
318 K, 101 kPa, x2 = 0.9497	0.492
318 K, 101.3 kPa, x1 = 0.1399	0.5125
318 K, 101.3 kPa, x1 = 0.2838	0.5478
318 K, 101.3 kPa, x1 = 0.4793	0.6011
318 K, 101.3 kPa, x1 = 0.6289	0.6411
318 K, 101.3 kPa, x1 = 0.8405	0.6993
322.25 K, 101 kPa, x1 = 0.2	0.5085
